Results published in US9474730B2, “Methods and compositions for use with K-ras mediated disorders” (Board of Regents of the University of Texas System, priority 2012, dated 2016).
Counter-ions that a name gives are not always drawn.

Legend:
[1] = target: T1, GFP-CTK (mGFP-tagged C-terminal region of K-ras) in MDCK cells (Homo sapiens, UniProt P01116); experiment: High throughput cell-based screen: plasma membrane localization of GFP-CTK; set-up: species or system canine; conditions: fendiline HCl 4 ug/ml, 48 h, MDCK
T1 construct: hypervariable region of K-ras (amino acids 166-188) cloned onto the carboxy terminus of GFP; expressed in transfected cells
T1 sequence (P01116 166-188 isoform P01116-2 limits assumed): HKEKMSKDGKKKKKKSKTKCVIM
Method: FIG. 1: Illustrates results of a high throughput cell-based screening of chemical libraries: Madin-Darby Canine Kidney epithelial cells (MDCK) expressing monomeric green fluorescent protein (mGFP)-tagged C-terminal region of K- or H-ras (GFP-CTK and GFP-CTH) were seeded in 96 well plates and treated with drug libraries for 48 h. Cells were then fixed with paraformaldehyde and imaged by BD Pathway Imager in confocal mode; shown are representative images of cells treated with vehicle, […], and 10 μM FTI-276; wherein experimentation was performed in accordance with principles described herein;
In accordance with some embodiments described herein, wild type MDCK cells or MDCK cells expressing monomeric green fluorescent protein (mGFP)-tagged C-terminal region of K-ras or H-ras (GFP-CTK and GFP-CTH respectively) were seeded in triplicate in 96 well plates (Matrical) at a density of 30,000 cells/well and incubated for 24 h at 37° C. Compounds were individually added to test cells at a concentration of 4 μg/mL (concentration of DMSO 1%) and incubated for a further 48 h.
Cells were then fixed with 4% paraformaldehyde and stored in PBS at 4° C. until imaged. Plates were imaged using a BD Pathway High-Throughput Bioimager. Images were acquired by a 3×3 montage with 20× objective lens using GFP-confocal mode. […]

[2] = tested on: BHK cells expressing constitutively active H-ras with endogenous K-ras knocked down; experiment: K-ras knockdown (siRNA) in H-rasG12V cells, pERK Western blotting; type: cell-based, hamster; conditions: then 6 μg/mL for 48 h
Method: FIG. 7: Illustrates that H-rasG12V signals through endogenous K-ras: BHK cells stably expressing H-rasG12V were treated with vehicle or fendiline HCl (6 μg/mL) for 48 h. (A) ppMEK and ppERK in soluble protein fraction and pAkt levels in membrane protein fraction were measured by quantitative Western blotting. A representative blots are shown. (B) BHK cells stably expressing H-rasG12V were transfected with K-ras siRNA encoding plasmid. 24 h after transfection, cells were treated with vehicle or fendiline HCl (6 μg/mL) for a further 48 h. Whole cell lysates were prepared from serum starved cells and analyzed by quantitative Western blotting. Representative Western blots are shown. Data is shown as mean±SEM from 6 independent experiments. […] (*=p<0.05), and experimentation was performed in accordance with principles described herein;
BHK cells expressing GFP-tagged H-rasG12V were transfected with the ON-Target K-ras specific siRNA pool or non-targeting control siRNA pool (Dharmacon, Inc., Lafayette, Colo., USA) according to manufacturer's protocol. At 24 h post-transfection, the cells were treated with vehicle or Fendiline HCl; 48 h later (72 h total knockdown time) the cells were lysed for Western blot analysis. […]
Quantification of intensities was performed using FluorChemQ software.

For `CC(NCCC(c1ccccc1)c1ccccc1)c1ccccc1` (centres unmarked) [fendiline HCl], the “localization of GFP-CTK” value [1] was “specifically affected localization of GFP-CTK” and the “pERK levels after K-ras knockdown” value [2] was “did not further reduce pERK levels”.
